Reference: patent US9533964B2, “Piperazine substituted bridged spiro[2.4]heptane derivatives as ALX receptor agonists” (Actelion Pharmaceuticals Ltd, priority 2013, dated 2017)

Legend:
[1] = target: T1, recombinant human ALX receptor (Homo sapiens, UniProt P25090); assay: Intracellular calcium measurements (FLIPR), ALX receptor agonistic activity; assay type: cell-based; conditions: HEK293-hALXR-Gα16 cells; median of n replications; normalized to WKYMVm 10 nM; read-out: EC50, agonistic activity with respect to the ALX receptor
T1 construct: expressed in transfected cells; host or cells: HEK293 (HEK293-hALXR-Gα16)
T1 sequence (P25090 1-351): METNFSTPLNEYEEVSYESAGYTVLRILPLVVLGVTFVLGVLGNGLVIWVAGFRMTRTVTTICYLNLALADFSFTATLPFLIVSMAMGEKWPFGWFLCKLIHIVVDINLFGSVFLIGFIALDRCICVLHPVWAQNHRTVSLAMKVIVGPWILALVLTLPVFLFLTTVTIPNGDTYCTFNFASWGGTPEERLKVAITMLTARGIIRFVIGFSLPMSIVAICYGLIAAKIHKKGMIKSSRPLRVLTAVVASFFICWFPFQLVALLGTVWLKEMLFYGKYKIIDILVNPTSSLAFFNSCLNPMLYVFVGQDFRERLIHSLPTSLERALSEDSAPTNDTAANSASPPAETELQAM
Description: The ALX receptor agonistic activity of the compounds of formula (I) is determined in accordance with the following experimental method.
Intracellular Calcium Measurements:
Cells expressing recombinant human ALX receptor and the G-protein Gα16 (HEK293-hALXR-Gα16) were grown to 80% confluency in Growing Medium (GM). Cells were detached from culture dishes with a cell dissociation buffer (Invitrogen, 13151-014), and collected by centrifugation at 1′000 rpm at rt for 5 min in Assay Buffer (AB) (equal parts of Hank's BSS (Gibco, 14065-049) and DMEM without Phenol Red (Gibco, 11880-028)). After 60 min incubation at 37° C. under 5% CO2 in AB supplemented with 1 μM Fluo-4 (AM) (Invitrogen, F14202) and 20 mM HEPES (Gibco, 15630-056), the cells were washed and resuspended in AB. They were then seeded onto 384-well FLIPR assay plates (Greiner, 781091) at 50′000 cells in 70 μl per well and sedimented by centrifugation at 1′000 rpm for 1 min. Stock solutions of test compounds were made up at a concentration of 10 mM in DMSO, and serially diluted in AB to concentrations required for activation dose response curves. WKYMVm (Phoenix Peptides) was used as a reference agonist. […] Changes in fluorescence were monitored before and after the addition of test compounds at lex=488 nm and lem=540 nm. […]

[2] = Plasma stability assay, human serum; assay type: in vitro ADME
Description: (§1) Rat or human serum adjusted at pH 7.4 with lactic acid or ammonium hydroxide, were equilibrated at 37° C. under orbital shaking in an incubator containing 5% CO2. The reaction was initiated by the addition of 1 μM of compounds (1.5 μl of 1 mM stock solution in DMSO in 1498.5 μl of plasma). At 0.01, 0.25, 0.5, 1, 2, 3, 4 and 6 h, aliquots (100 μl) were transferred in a 96 well plate containing 300 μl MeOH placed on ice to stop the reaction. After vortexing for 20 min at 1400 rpm on an Eppendorf thermomixer, the plates were centrifuged at 3220 g for 20 min at 4° C. and the supernatants were analyzed with LC-MS/MS. Calibration samples in plasma containing 0.1% of dichlorvos were prepared and analysed in parallel to the incubation samples to allow the quantification. Half lives (T1/2) in hours were then calculated. In addition the remaining concentration of the respective compound after time Tlast relative to the concentration at the beginning has been determined (table 2).

[3] = Plasma stability assay, rat serum; assay type: in vitro ADME
Description: as §1

EC50 [1]: 9.4 nM
remaining concentration at Tlast ([2]; Tlast 6 h, 1 μM, 37° C.): 82%
half-life at 1 μM ([2]; pH 7.4, 37° C.): > 6 h
remaining concentration at Tlast ([3]; Tlast 6 h, 1 μM, 37° C.): 100%
half-life at 1 μM ([3]; pH 7.4, 37° C.): > 6 h
Structure (SMILES): Cc1ccc(C2(NC(=O)C3C(C(=O)NCCN4CCN(C)CC4)C4CCC3C43CC3)CC2)cc1 [Example 1, (5R)-N^5-(1-(p-tolyl)cyclopropyl)-(6R)-N^6-(2-(4-methylpiperazin-1-yl)ethyl)-(4S,7R)-[4,7-ethylene-spiro[2.4]heptane]-5,6-dicarboxamide]
